# The kinase profiling compilation of Christmann-Franck et al. (2016)
# Key:
# Test in all cases: KINOMEscan competition binding
# Settings in all cases: compound 10.0 µM
# [1] = target: ACVR2A (human) (UniProt P27037)
# [2] = target: AURKB (human) (UniProt Q96GD4)
# [3] = target: AURKC (human) (UniProt Q9UQB9)
# [4] = target: CHUK (human) (UniProt O15111)
# [5] = target: CLK1 (human) (UniProt P49759)
# [6] = target: CLK2 (human) (UniProt P49760)
# [7] = target: CSNK1E (human) (UniProt P49674)
# [8] = target: CSNK2A1 (human) (UniProt P68400)
# [9] = target: CSNK2A2 (human) (UniProt P19784)
# [10] = target: DAPK1 (human) (UniProt P53355)
# [11] = target: DAPK3 (human) (UniProt O43293)
# [12] = target: DMPK (human) (UniProt Q09013)
# [13] = tested on: EGFR (human), P00533 [747-751 del / S ins]
# [14] = tested on: EIF2AK4 KD2 (human), Q9P2K8 [S808G]
# [15] = tested on: FLT3 (human), P36888 [D835Y]
# [16] = tested on: FLT3 (human), P36888 [ITD]
# [17] = tested on: FLT3 (human), P36888 [K663Q]
# [18] = tested on: FLT3 (human), P36888 [N841I]
# [19] = target: GAK (human) (UniProt O14976)
# [20] = target: GSK3A (human) (UniProt P49840)
# [21] = tested on: KIT (human), P10721 [V559D/V654A]
# Sequence of KIT (human), P10721 [V559D/V654A] (P10721 whole entry V559D/V654A, looked up): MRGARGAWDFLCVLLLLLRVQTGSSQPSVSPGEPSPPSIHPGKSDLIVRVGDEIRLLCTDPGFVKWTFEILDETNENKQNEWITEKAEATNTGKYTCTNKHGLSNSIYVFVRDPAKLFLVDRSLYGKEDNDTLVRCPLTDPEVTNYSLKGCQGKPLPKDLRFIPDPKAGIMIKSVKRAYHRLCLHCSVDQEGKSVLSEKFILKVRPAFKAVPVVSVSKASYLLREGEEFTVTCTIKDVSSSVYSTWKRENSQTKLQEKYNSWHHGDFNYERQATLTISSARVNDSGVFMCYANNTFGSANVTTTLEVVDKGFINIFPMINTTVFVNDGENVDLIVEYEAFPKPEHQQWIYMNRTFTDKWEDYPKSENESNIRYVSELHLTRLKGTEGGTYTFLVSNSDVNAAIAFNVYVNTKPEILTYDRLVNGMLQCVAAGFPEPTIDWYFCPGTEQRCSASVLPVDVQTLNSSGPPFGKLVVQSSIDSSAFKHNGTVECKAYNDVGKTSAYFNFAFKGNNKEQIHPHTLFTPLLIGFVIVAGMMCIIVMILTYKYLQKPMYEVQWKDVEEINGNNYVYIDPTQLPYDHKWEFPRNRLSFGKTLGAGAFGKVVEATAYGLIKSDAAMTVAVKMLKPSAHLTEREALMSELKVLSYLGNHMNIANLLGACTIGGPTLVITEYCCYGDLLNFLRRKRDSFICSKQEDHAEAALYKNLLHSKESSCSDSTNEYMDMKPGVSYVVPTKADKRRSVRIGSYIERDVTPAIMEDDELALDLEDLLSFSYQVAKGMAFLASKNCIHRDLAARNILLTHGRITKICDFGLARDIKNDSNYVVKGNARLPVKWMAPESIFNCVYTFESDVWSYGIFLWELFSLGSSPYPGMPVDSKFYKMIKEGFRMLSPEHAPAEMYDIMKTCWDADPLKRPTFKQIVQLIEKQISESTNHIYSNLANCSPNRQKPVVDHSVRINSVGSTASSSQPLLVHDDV
# [22] = tested on: KIT (human), P10721 [V559D]
# Sequence of KIT (human), P10721 [V559D] (P10721 whole entry V559D, looked up): as the sequence (P10721 whole entry V559D/V654A, looked up) above, with A654V counted along it
# [23] = target: MAP2K4 (human) (UniProt P45985)
# [24] = target: MAP3K7 (human) (UniProt O43318)
# Sequence of MAP3K7 (human) (O43318 whole entry, looked up): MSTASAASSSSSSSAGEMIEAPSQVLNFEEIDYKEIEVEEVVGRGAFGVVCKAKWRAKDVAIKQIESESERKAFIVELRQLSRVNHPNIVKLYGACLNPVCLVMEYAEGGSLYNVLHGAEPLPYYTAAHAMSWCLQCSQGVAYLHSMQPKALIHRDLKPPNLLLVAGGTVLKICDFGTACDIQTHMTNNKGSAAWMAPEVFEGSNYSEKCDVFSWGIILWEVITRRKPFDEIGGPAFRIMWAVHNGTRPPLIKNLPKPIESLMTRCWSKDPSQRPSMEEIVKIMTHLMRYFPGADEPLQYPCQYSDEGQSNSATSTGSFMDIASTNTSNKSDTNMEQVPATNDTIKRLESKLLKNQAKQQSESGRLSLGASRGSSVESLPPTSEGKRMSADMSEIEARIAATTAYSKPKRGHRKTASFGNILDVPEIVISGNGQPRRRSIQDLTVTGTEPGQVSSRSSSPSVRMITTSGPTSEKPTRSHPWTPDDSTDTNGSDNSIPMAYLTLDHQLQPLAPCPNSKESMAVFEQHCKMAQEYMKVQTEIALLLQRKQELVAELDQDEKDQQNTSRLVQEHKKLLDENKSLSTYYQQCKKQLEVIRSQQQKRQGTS
# [25] = target: MAPK15 (human) (UniProt Q8TD08)
# Sequence of MAPK15 (human) (Q8TD08 whole entry, looked up): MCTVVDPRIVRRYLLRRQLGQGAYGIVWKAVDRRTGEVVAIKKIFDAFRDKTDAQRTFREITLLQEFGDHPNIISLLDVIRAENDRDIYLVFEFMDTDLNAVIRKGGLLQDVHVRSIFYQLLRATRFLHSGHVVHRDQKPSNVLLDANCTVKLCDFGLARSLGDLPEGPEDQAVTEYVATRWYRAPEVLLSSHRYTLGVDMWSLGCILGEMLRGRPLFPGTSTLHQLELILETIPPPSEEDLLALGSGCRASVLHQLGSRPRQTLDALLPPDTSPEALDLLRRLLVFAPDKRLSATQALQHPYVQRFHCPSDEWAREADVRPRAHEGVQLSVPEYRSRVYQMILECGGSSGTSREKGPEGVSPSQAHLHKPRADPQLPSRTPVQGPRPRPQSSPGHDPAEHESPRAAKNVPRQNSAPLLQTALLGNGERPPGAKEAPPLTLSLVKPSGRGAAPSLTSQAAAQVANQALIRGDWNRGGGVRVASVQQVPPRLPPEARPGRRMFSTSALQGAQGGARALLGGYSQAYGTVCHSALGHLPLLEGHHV
# [26] = target: MKNK2 (human) (UniProt Q9HBH9)
# [27] = target: PHKG2 (human) (UniProt P15735)
# [28] = target: PIK3CG (human) (UniProt P48736)
# [29] = target: PIM3 (human) (UniProt Q86V86)
# [30] = target: PIP4K2B (human) (UniProt P78356)
# [31] = target: RIOK1 (human) (UniProt Q9BRS2)
# [32] = target: RIOK3 (human) (UniProt O14730)
# [33] = target: RPS6KA2 KD2 (human) (UniProt Q15349)
# Sequence of RPS6KA2 KD2 (human) (Q15349 whole entry, looked up): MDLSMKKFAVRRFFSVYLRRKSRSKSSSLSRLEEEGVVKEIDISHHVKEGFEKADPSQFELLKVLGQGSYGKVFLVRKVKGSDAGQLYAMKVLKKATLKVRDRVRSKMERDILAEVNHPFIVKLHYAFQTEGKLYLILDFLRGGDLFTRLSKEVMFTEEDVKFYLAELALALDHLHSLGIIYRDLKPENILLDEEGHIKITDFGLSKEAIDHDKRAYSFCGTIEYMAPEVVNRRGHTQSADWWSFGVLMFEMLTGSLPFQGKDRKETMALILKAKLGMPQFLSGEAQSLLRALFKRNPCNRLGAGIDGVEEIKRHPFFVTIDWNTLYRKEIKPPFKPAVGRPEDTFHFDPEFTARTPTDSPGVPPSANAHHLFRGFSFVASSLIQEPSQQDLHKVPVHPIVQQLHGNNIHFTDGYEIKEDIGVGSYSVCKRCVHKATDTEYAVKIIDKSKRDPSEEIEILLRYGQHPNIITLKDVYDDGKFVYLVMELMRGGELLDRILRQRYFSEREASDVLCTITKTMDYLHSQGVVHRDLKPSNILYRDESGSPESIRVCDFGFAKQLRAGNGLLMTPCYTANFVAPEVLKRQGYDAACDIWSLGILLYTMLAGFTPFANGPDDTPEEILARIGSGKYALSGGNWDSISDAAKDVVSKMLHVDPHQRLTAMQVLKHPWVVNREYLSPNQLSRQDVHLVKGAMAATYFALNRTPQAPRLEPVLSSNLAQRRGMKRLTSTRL
# [34] = target: SRPK3 (human) (UniProt Q9UPE1)
# [35] = target: STK11 (human) (UniProt Q15831)
# [36] = target: TAOK1 (human) (UniProt Q7L7X3)
# [37] = target: TAOK3 (human) (UniProt Q9H2K8)
# [38] = target: TGFBR2 (human) (UniProt P37173)
# [39] = target: TLK1 (human) (UniProt Q9UKI8)
# [40] = target: TNIK (human) (UniProt Q9UKE5)
# [41] = target: TNK1 (human) (UniProt Q13470)
# Sequence of TNK1 (human) (Q13470 whole entry, looked up): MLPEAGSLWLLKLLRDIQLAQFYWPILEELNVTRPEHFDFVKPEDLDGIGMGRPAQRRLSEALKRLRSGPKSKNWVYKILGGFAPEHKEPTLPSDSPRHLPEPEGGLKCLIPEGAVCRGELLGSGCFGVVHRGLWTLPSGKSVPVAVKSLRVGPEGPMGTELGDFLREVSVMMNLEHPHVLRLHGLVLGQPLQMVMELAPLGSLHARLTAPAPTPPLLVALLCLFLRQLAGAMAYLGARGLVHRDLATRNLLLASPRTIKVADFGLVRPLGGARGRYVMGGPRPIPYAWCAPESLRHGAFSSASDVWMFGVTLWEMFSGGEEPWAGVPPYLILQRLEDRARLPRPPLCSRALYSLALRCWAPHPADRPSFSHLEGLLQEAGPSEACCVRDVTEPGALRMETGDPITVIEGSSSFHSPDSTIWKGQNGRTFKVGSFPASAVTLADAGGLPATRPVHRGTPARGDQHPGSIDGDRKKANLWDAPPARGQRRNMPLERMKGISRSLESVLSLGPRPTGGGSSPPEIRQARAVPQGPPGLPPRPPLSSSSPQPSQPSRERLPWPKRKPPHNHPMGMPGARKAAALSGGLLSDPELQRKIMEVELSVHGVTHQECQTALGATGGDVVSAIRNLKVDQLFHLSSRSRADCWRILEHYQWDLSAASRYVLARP
# [42] = target: TYK2 JH2 pseudokinase (human) (UniProt P29597)
# Sequence of TYK2 JH2 pseudokinase (human) (P29597 whole entry, looked up): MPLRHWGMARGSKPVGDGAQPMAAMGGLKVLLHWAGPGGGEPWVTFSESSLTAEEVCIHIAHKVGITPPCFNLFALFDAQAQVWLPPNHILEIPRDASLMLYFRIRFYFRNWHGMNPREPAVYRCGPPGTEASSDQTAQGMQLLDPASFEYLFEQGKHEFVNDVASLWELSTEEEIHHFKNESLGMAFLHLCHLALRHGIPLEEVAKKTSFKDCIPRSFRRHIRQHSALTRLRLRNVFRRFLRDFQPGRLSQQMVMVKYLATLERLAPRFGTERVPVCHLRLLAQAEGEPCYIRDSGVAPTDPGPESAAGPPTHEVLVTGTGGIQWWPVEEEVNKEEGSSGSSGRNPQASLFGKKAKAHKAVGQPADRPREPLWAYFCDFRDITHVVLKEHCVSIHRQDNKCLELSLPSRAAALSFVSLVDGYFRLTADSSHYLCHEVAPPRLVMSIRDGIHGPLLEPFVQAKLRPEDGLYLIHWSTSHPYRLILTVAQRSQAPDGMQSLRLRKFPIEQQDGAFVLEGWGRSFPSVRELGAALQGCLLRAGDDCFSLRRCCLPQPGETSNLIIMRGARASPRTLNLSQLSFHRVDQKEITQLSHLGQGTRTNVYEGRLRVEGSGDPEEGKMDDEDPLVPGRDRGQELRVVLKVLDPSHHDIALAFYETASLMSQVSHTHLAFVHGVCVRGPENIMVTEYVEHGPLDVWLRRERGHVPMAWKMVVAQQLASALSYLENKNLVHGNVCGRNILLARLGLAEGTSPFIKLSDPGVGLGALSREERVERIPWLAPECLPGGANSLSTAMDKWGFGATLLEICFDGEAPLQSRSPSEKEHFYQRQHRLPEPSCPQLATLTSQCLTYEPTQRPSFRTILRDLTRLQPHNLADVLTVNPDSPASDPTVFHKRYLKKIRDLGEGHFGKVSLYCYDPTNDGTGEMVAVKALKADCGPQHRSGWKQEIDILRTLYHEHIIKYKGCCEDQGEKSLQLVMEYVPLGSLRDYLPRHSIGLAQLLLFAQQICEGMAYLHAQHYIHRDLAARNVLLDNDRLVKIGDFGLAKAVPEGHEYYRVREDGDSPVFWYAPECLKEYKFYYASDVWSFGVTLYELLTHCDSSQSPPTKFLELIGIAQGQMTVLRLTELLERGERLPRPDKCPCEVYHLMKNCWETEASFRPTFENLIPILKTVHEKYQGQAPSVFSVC
# Sequence of AURKC (human) (Q9UQB9 whole entry, looked up): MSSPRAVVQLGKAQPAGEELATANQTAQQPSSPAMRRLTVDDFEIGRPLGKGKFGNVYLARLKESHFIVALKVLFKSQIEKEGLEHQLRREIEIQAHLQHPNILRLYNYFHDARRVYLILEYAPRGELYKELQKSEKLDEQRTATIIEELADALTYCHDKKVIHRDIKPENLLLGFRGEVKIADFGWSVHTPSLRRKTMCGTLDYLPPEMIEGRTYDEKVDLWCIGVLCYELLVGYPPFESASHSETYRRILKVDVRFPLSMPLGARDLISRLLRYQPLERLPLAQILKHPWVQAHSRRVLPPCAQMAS
smiles,measurement,setting,value
CN1CCN(c2ccc(C(=O)Nc3ncc4c(n3)N(C)c3ccccc3C(=O)N4C)cc2)CC1,"kinase still bound, per cent of control",[1],100%
same,"kinase still bound, per cent of control",[2],74%
same,"kinase still bound, per cent of control",[3],99%
same,"kinase still bound, per cent of control",[4],83%
same,"kinase still bound, per cent of control",[5],100%
same,"kinase still bound, per cent of control",[6],96%
same,"kinase still bound, per cent of control",[7],89%
same,"kinase still bound, per cent of control",[8],100%
same,"kinase still bound, per cent of control",[9],78%
same,"kinase still bound, per cent of control",[10],84%
same,"kinase still bound, per cent of control",[11],100%
same,"kinase still bound, per cent of control",[12],100%
same,"kinase still bound, per cent of control",[13],86%
same,"kinase still bound, per cent of control",[14],100%
same,"kinase still bound, per cent of control",[15],79%
same,"kinase still bound, per cent of control",[16],100%
same,"kinase still bound, per cent of control",[17],100%
same,"kinase still bound, per cent of control",[18],78%
same,"kinase still bound, per cent of control",[19],100%
same,"kinase still bound, per cent of control",[20],100%
same,"kinase still bound, per cent of control",[21],100%
same,"kinase still bound, per cent of control",[22],89%
same,"kinase still bound, per cent of control",[23],86%
same,"kinase still bound, per cent of control",[24],89%
same,"kinase still bound, per cent of control",[25],100%
same,"kinase still bound, per cent of control",[26],66%
same,"kinase still bound, per cent of control",[27],90%
same,"kinase still bound, per cent of control",[28],70%
same,"kinase still bound, per cent of control",[29],100%
same,"kinase still bound, per cent of control",[30],100%
same,"kinase still bound, per cent of control",[31],80%
same,"kinase still bound, per cent of control",[32],71%
same,"kinase still bound, per cent of control",[33],64%
same,"kinase still bound, per cent of control",[34],100%
same,"kinase still bound, per cent of control",[35],100%
same,"kinase still bound, per cent of control",[36],75%
same,"kinase still bound, per cent of control",[37],92%
same,"kinase still bound, per cent of control",[38],100%
same,"kinase still bound, per cent of control",[39],86%
same,"kinase still bound, per cent of control",[40],100%
same,"kinase still bound, per cent of control",[41],92%
same,"kinase still bound, per cent of control",[42],61%
CN1C(=O)c2ccccc2N(C)c2nc(Nc3ccc(N4CCC(O)CC4)cc3)ncc21,"kinase still bound, per cent of control",[1],90%
same,"kinase still bound, per cent of control",[2],1.4%
same,"kinase still bound, per cent of control",[3],22%
same,"kinase still bound, per cent of control",[4],79%
same,"kinase still bound, per cent of control",[5],75%
same,"kinase still bound, per cent of control",[6],100%
same,"kinase still bound, per cent of control",[7],100%
same,"kinase still bound, per cent of control",[8],86%
same,"kinase still bound, per cent of control",[9],58%
same,"kinase still bound, per cent of control",[10],98%
same,"kinase still bound, per cent of control",[11],100%
same,"kinase still bound, per cent of control",[12],100%
same,"kinase still bound, per cent of control",[13],100%
same,"kinase still bound, per cent of control",[14],98%
same,"kinase still bound, per cent of control",[15],24%
same,"kinase still bound, per cent of control",[16],52%
same,"kinase still bound, per cent of control",[17],85%
same,"kinase still bound, per cent of control",[18],80%
same,"kinase still bound, per cent of control",[19],37%
same,"kinase still bound, per cent of control",[20],100%
same,"kinase still bound, per cent of control",[21],58%
same,"kinase still bound, per cent of control",[22],80%
same,"kinase still bound, per cent of control",[23],74%
same,"kinase still bound, per cent of control",[24],58%
same,"kinase still bound, per cent of control",[25],100%
same,"kinase still bound, per cent of control",[26],8.4%
same,"kinase still bound, per cent of control",[27],100%
same,"kinase still bound, per cent of control",[28],4.2%
same,"kinase still bound, per cent of control",[29],100%
same,"kinase still bound, per cent of control",[30],75%
same,"kinase still bound, per cent of control",[31],90%
same,"kinase still bound, per cent of control",[32],82%
same,"kinase still bound, per cent of control",[33],91%
same,"kinase still bound, per cent of control",[34],84%
same,"kinase still bound, per cent of control",[35],100%
same,"kinase still bound, per cent of control",[36],0.9%
same,"kinase still bound, per cent of control",[37],1.2%
same,"kinase still bound, per cent of control",[38],100%
same,"kinase still bound, per cent of control",[39],69%
same,"kinase still bound, per cent of control",[40],83%
same,"kinase still bound, per cent of control",[41],0.95%
same,"kinase still bound, per cent of control",[42],71%
